≈ marks a conversion by molar mass, not a printed value.
What was measured:
[1] = test system: Mycobacterium tuberculosis; test: Antitubercular activity against luxABCDE expressing Mycobacterium tuberculosis H37Rv infected in mouse J774 macrophages assessed as log reduction in bacterial colonies at 2.6 uM measured after 4 days under aerobic condition by luminescence assay; assay type: functional
[2] = test system: Mycobacterium tuberculosis; test: Antitubercular activity against Mycobacterium tuberculosis H37Rv ATCC 27294 after 5 days under aerobic condition; assay type: functional, organism-based; conditions: for IC50 / IC90 / MIC: H37Rv ATCC 27294, 120 h
[3] = test system: Mycobacterium tuberculosis; test: Antitubercular activity against luxABCDE expressing Mycobacterium tuberculosis H37Rv infected in mouse J774 macrophages assessed as log reduction in bacterial colonies at 30 uM measured after 4 days under aerobic condition by luminescence assay; assay type: functional
[4] = test system: Mycobacterium tuberculosis; test: Antitubercular activity against luxABCDE expressing Mycobacterium tuberculosis H37Rv infected in human THP1 cells measured after 3 days by luminescence assay; assay type: functional, organism-based; conditions: THP-1, 72 h
[5] = in vitro; conditions: human, Caco-2
Description: Apparent permeability of the compound across basolateral side to apical side in human Caco2 cells monolayer at 10 uM after 2 hrs by LC-MS/MS analysis

[6] = in vitro; conditions: human, Caco-2; remark: listed apart in the source
Description: Efflux ratio of apparent permeability from basolateral to apical over apical to basolateral side in human Caco2 cells monolayer at 10 uM after 2 hrs by LC-MS/MS analysis

[7] = Half life in human liver S9 microsomes at 1 uM in presence of NADPH by LC-MS/MS analysis
[8] = in vitro; conditions: human, Caco-2; remark: listed apart in the source
Description: Efflux ratio of apparent permeability from basolateral to apical over apical to basolateral side in human Caco2 cells monolayer at 10 uM after 1 hr by LC-MS/MS analysis

[9] = Apparent permeability of the compound across apical side to basolateral side in human Caco2 cells monolayer at 10 uM after 1 hr by LC-MS/MS analysis; assay type: ADME, cell-based; conditions: Caco-2
[10] = in vitro; conditions: human, THP1 cells
Description: Selectivity index, ratio of IC50 for human THP1 cells to IC50 for Mycobacterium tuberculosis H37Rv under aerobic condition

[11] = Half life in human liver S9 microsomes at 1 uM in absence of NADPH by LC-MS/MS analysis
[12] = Intrinsic clearance in human liver S9 microsomes at 1 uM in presence of NADPH by LC-MS/MS analysis; assay type: ADME, S9 microsome; conditions: read-out: CLH
[13] = test system: Mycobacterium tuberculosis; test: Antitubercular activity against Mycobacterium tuberculosis H37Rv ATCC 27294 after 10 days under low oxygen condition followed by incubation under aerobic condition for 28 hrs by LORA; assay type: functional, organism-based
[14] = test system: HepG2; test: Cytotoxicity against human HepG2 cells at 100 uM after 3 days by CellTiter-Glo luminescent cell viability assay; assay type: cell-based; conditions: HepG2, 72 h
[15] = Fraction unbound in human plasma at 5 uM after 4 hrs by LC-MS/MS analysis; assay type: ADME, cell-free
[16] = test system: THP-1; test: Cytotoxicity against human THP1 cells after 3 days by luminescence assay; assay type: cell-based; conditions: THP-1, 72 h
[17] = test system: L6; test: Cytotoxicity against rat L6 cells after 2 days by CellTiter-Glo luminescent cell viability assay; assay type: ADME, cell-based; conditions: L6, 48 h
[18] = in vitro; conditions: human, Caco-2; remark: listed apart in the source
Description: Apparent permeability of the compound across apical side to basolateral side in human Caco2 cells monolayer at 10 uM after 2 hrs by LC-MS/MS analysis

[19] = Intrinsic clearance in human liver S9 microsomes at 1 uM in absence of NADPH by LC-MS/MS analysis; assay type: ADME, S9 microsome; conditions: read-out: CLH
[20] = Apparent permeability of the compound across basolateral side to apical side in human Caco2 cells monolayer at 10 uM after 1 hr by LC-MS/MS analysis; assay type: ADME, cell-based; conditions: Caco-2
[21] = Protein binding in human plasma at 5 uM after 4 hrs by LC-MS/MS analysis
[22] = test system: Mycobacterium tuberculosis; test: Potency index, ratio of compound MIC to ethambutol MIC for antitubercular activity against Mycobacterium tuberculosis H37Rv ATCC 27294 under aerobic condition; assay type: functional
[23] = test system: Mycobacterium tuberculosis; test: Bactericidal activity against Mycobacterium tuberculosis H37Rv ATCC 27294 assessed as concentration required for 2 log kill after 21 days under aerobic condition by colony forming assay; assay type: functional; conditions: for MBC: H37Rv ATCC 27294, 504 h
[24] = test system: Vero; test: Cytotoxicity against African green monkey Vero cells after 2 days by CellTiter-Glo luminescent cell viability assay; assay type: ADME, cell-based; conditions: Chlorocebus sabaeus, 48 h
[25] = test system: Mycobacterium tuberculosis; test: Antitubercular activity against luxABCDE expressing Mycobacterium tuberculosis H37Rv infected in mouse J774 macrophages assessed as log reduction in bacterial colonies at 200 uM measured after 4 days under aerobic condition by luminescence assay; assay type: functional
[26] = test system: Mycobacterium tuberculosis; test: Antitubercular activity against luxABCDE expressing Mycobacterium tuberculosis H37Rv infected in mouse J774 macrophages assessed as log reduction in bacterial colonies at 7.2 uM measured after 4 days under aerobic condition by luminescence assay; assay type: functional
[27] = test system: Mycobacterium tuberculosis; test: Potency index, ratio of compound MIC to metronidazole MIC for antitubercular activity against Mycobacterium tuberculosis H37Rv ATCC 27294 under low oxygen condition; assay type: functional
[28] = test system: Mycobacterium tuberculosis; test: Antitubercular activity against luxABCDE expressing Mycobacterium tuberculosis H37Rv infected in mouse J774 macrophages assessed as log reduction in bacterial colonies at 10.9 uM measured after 4 days under aerobic condition by luminescence assay; assay type: functional
[29] = Solubility of compound in Middlebrook 7H9 broth media at pH 6.4 at 200 uM after 90 mins by UV-VIS spectrophotometric method; assay type: physicochemical; conditions: buffer, pH 6.4, 1.5 h
[30] = test system: Mycobacterium tuberculosis; test: Antitubercular activity against luxABCDE expressing Mycobacterium tuberculosis H37Rv infected in mouse J774 macrophages assessed as log reduction in bacterial colonies at 20 uM measured after 4 days under aerobic condition by luminescence assay; assay type: functional

| Structure (SMILES) | IC50 [2] [µM] | IC90 [2] [µM] | MIC [2] [µM] | IC50 [4] [µM] | IC90 [4] [µM] | Papp B→A at 2 h, 10 µM [5] [×10⁻⁶ cm/s] | half-life at 1 µM [7] [h] | IC50 [13] [µM] | IC90 [13] [µM] | MIC [13] [µM] | IC50 [17] [µM] | Papp A→B at 2 h, 10 µM [18] [×10⁻⁶ cm/s] | fraction unbound at 4 h, 5 µM [21] | MBC [23] [µM] | IC50 [24] [µM] | other results |
| --- | --- | --- | --- | --- | --- | --- | --- | --- | --- | --- | --- | --- | --- | --- | --- | --- |
| NNC(=O)c1ccncc1 [ISONIAZID] | 0.131 | 0.2 | 0.313 (≈ 0.0429 µg/mL) | 0.19 | 0.24 | – | – | – | – | – | – | – | – | – | – | log(activity) [1]: 2.6; log(activity) [3]: 2.7 |
| O=C(CCn1cnc([N+](=O)[O-])n1)Nc1cccc(OCc2ccccc2)c1 | 1.7 to 3.2 | 2.8 to 3.6 | 3 to 4.1 (≈ 1.1 to 1.51 µg/mL) | 1.3 | 2.9 | 10.5 | 2.07 | 9.2 | 41 | > 200 | 40 | 15.8 | 0.033 | 0.75 (≈ 0.276 µg/mL) | – | efflux ratio at 2 h, 10 µM [6]: 0.67; efflux ratio at 1 h, 10 µM [8]: 0.79; Papp A→B at 1 h, 10 µM [9]: 22.2 ×10⁻⁶ cm/s; selectivity ratio [10]: > 10; half-life at 1 µM [11]: > 3 h; microsomal CLint at 1 µM [12]: 18.7 µL/min/mg; IC50 [14]: > 100 µM; fraction unbound at 4 h, 5 µM [15]: 0.042; IC50 [16]: > 50 µM; microsomal CLint at 1 µM [19]: < 12.8 µL/min/mg; Activity [2]: Dose-dependent effect; Papp B→A at 1 h, 10 µM [20]: 17.6 ×10⁻⁶ cm/s; Ratio [22]: 2; Activity [23]: Dose-dependent effect |
| O=C(Cn1cnc([N+](=O)[O-])n1)N1CCN(Cc2ccc(Cl)c(Cl)c2)CC1 | 5.9 | 7.7 | 6.6 (≈ 2.63 µg/mL) | 4 | 6.7 | 14.8 | 1.2 | 17 | 47 | 140 (≈ 55.9 µg/mL) | – | 16.3 | 0.076 | 5.6 (≈ 2.24 µg/mL) | – | selectivity ratio [10]: > 10; half-life at 1 µM [11]: 2.9 h; IC50 [14]: 77 µM; IC50 [16]: > 50 µM |
| O=C(CCn1cnc([N+](=O)[O-])n1)Nc1cccc(-c2ccccc2)c1 | 3.6 to 6.1 | 6.8 to 7.1 | 6.8 to 8.4 (≈ 2.29 to 2.83 µg/mL) | 2.3 | 4.1 | 7 | > 3 | 7.8 | 44 | > 200 | 36 | 18 | 0.042 | 6.8 (≈ 2.29 µg/mL) | – | efflux ratio at 2 h, 10 µM [6]: 0.39; efflux ratio at 1 h, 10 µM [8]: 0.79; Papp A→B at 1 h, 10 µM [9]: 22.2 ×10⁻⁶ cm/s; selectivity ratio [10]: > 10; half-life at 1 µM [11]: > 3 h; microsomal CLint at 1 µM [12]: < 12.8 µL/min/mg; IC50 [14]: > 100 µM; fraction unbound at 4 h, 5 µM [15]: 0.033; IC50 [16]: > 50 µM; microsomal CLint at 1 µM [19]: < 12.8 µL/min/mg; Activity ([2]; TDE = time-dependent effect): Tde; Papp B→A at 1 h, 10 µM [20]: 17.5 ×10⁻⁶ cm/s; Activity ([23]; TDE = time-dependent effect): Tde |
| O=C(Cn1cnc([N+](=O)[O-])n1)Nc1ccc(Oc2ccc(Cl)cc2)cc1 | 51 | 100 | 94 (≈ 35.1 µg/mL) | – | – | – | – | 13 | 94 | > 200 | – | – | – | 100 (≈ 37.4 µg/mL) | 19 | log(activity) [25]: 2.6 |
| O=C(Cn1ccnc1[N+](=O)[O-])Nc1ccc(Oc2ccccc2)cc1 | 60 | 90 | 98 (≈ 33.2 µg/mL) | – | – | – | – | 14 | 71 | > 200 | 63 | – | – | 100 (≈ 33.8 µg/mL) | 98 | log(activity) [25]: 2.7 |
| O=C(Cn1cnc([N+](=O)[O-])n1)Nc1ccc(Oc2ccccc2)cc1 | 65 | 100 | 105 (≈ 35.6 µg/mL) | – | – | – | – | 8.9 | 92 | > 200 | – | – | – | 200 (≈ 67.9 µg/mL) | 39 | log(activity) [25]: 2.7 |
| O=C(NCCCCn1cnc([N+](=O)[O-])n1)c1sc2ccccc2c1Cl | 4 | 6.4 | 6.1 (≈ 2.32 µg/mL) | – | – | – | – | 35.5 | 61.4 | 21.5 (≈ 8.17 µg/mL) | > 264 | – | – | 7.2 (≈ 2.73 µg/mL) | > 100 | log(activity) [26]: 2.2; Ratio [27]: 6 - 9 |
| COc1ccc2c(c1)[C@]13CCCC[C@@H]1[C@H](C2)N(C)CC3 [DEXTROMETHORPHAN] | – | – | – | – | – | – | 1.54 to 1.59 | – | – | – | – | – | – | – | – | microsomal CLint at 1 µM [12]: 24.2 µL/min/mg; microsomal CLint at 1 µM [19]: < 12.8 µL/min/mg |
| O=C(NCCCCn1cnc([N+](=O)[O-])n1)c1nc2ccccc2s1 | 4.9 | 7.4 | 6.7 (≈ 2.32 µg/mL) | – | – | – | – | 26 | 29.2 | 23.4 (≈ 8.11 µg/mL) | – | – | – | 10.9 (≈ 3.78 µg/mL) | > 100 | log(activity) [28]: 2.4; solubility [29]: Soluble; Ratio [27]: 6 - 9 |
| CC(C)NCC(O)COc1cccc2ccccc12 (centres undefined) [PROPRANOLOL] | – | – | – | – | – | 21.1 to 27.3 | – | – | – | – | – | 8.8 to 25.4 | 0.199 | – | – | efflux ratio at 2 h, 10 µM [6]: 0.83 to 3.1; efflux ratio at 1 h, 10 µM [8]: 2.5; fraction unbound at 4 h, 5 µM [15]: 0.244; Papp B→A at 1 h, 10 µM [20]: 43.3 ×10⁻⁶ cm/s |
| O=C(Cn1ccnc1[N+](=O)[O-])Nc1ccc(Oc2ccc(Cl)cc2)cc1 | 81 | > 200 | > 200 | – | – | – | – | 17 | 24 | 35 (≈ 13 µg/mL) | – | – | – | 100 (≈ 37.3 µg/mL) | 30 | log(activity) [30]: 2.6; Ratio [27]: 6 - 9 |
